The text below walks through data of publication PMC6273578, “Design, Synthesis and Biological Evaluation of Benzohydrazide Derivatives Containing Dihydropyrazoles as Potential EGFR Kinase Inhibitors” (Molecules, 2016).

The subject of one data set is EGFR. Conditions: read-out: EGFR inhibitory activity IC50, cited from earlier work.
The next data set concerns A549 cells. Put plainly: MTT antiproliferative assay, A549. The class given is cell-based, human. Conditions: read-out: In vitro antiproliferative activity IC50, A549. As to the method: (§1) IC50 values of the test compounds against A549, MCF-7, Hela and HepG2 cells were obtained from State Key Laboratory of Pharmaceutical Biotechnology, Nanjing University, and were determined by a standard (MTT)-based colorimetric assay (Beyotime Inst. Biotech., Nanjing, China). Tumor cell lines were grown to mid-log phase and then diluted to […] making sure they were seeded in 96-well plates (Philas, Nanjing, China) at a density of 5 × 10^3–1 × 10^4 cells per well. The outer wells containing 1 × PBS solution of the plate are not used for the assay to avoid the possibility of edge effects. The plate was incubated at 37 °C in a 5% CO2 incubator in DMEM containing 10% fetal bovine serum (FBS, Gibco, Waltham, MA, USA) for 24 h. Then, we added a 100-μL series concentration of drug-containing medium into the wells to maintain the final concentration of drug as 100, 10, 1 and 0.1 μmol/L. After 12 h, cell survival was determined by the addition of a MTT (3-(4,5-dimethylthiazol-2-yl)-2,5-diphenyl trtrazolium bromide) solution (10 μL of 5 mg/mL MTT in 1 × PBS). We waited for 4 h proliferation, discarded the medium and quickly added 150 μL DMSO per well, shaking the plates well for 10 min to ensure complete dissolution. Optical absorbance was measured at 570 nm on a microplate reader (Bio-Rad, Hercules, CA, USA). Survival ratios are expressed in percentages with respect to untreated cells. The experiments were replicated at least three times to verify the methodology reproducibility when using the above-mentioned conditions.
(In general: Tetrazolium assays rely on reduction of a dye to a coloured formazan, in cell work by metabolically active cells.)

In data set [1] the test system is HeLa cells. Put plainly: Cell apoptosis assay by flow cytometry (Annexin V-FITC/PI). The class given is cell-based, human. The following applies: 24 h. The method, then: To verify whether the inhibition of cell growth of HeLa cell lines was related to cell apoptosis, we decided to use flow cytometry with an Annexin V-FITC/PI Apoptosis Detection Kit to […] the HeLa cell apoptosis with compound H20.
For Annexin V/PI assays, HeLa cells were stained with Annexin VFITC and PI and then monitored for apoptosis by flow cytometry. Briefly, 5 × 10^3 cells were seeded in 6-well plates for 24 h and then were treated with H20 (2.0, 4.0, 6.0, 8.0 μM) for 24 h. Then, cells were collected and washed twice with PBS and stained with 5 μL Annexin V-FITC and 5 μL PI (5 μg/mL) in 1× binding buffer (10 mM HEPES, pH 7.4, 140 mM […], 2.5 mM CaCl2) for 15 min at room temperature in the dark. Apoptotic cells were quantified using a BD Accuri C6 Flow Cytometer (Becton, Dickinson and Company, Clifton, NJ, USA). Statistical analysis was done using Flowjo 7.6.1 software. Both early apoptotic (AnnexinV-positive, PI-negative) and late apoptotic (double positive of Annexin V and PI) cells were detected.
In general terms: A flow cytometer gives signals particle by particle.

A short description of data set [2]: Cytotoxicity test (MTT) on 293T cells. The following applies: human, 293T human kidney epithelial cells. As to the method: (§2) The cytotoxic activity in vitro was measured by the colorimetric MTT assay. […] For the cytotoxicity assay, 20 μL of MTT (5 mg/mL) was added per well 4 h before the end of the incubation. After removing the supernatant, 200 μL DMSO was added to dissolve the formazan crystals. The absorbance at λ 570 nm was read on an LX300 Epson Diagnostic microplate reader, untreated cells were used as negative controls.

Data set [3] concerns HeLa cells. Put plainly: MTT antiproliferative assay, HeLa. The class given is cell-based, human. The following applies: read-out: In vitro antiproliferative activity IC50, HeLa. The method, then: as §1
In data set [4] the target is epidermal growth factor receptor (EGFR) (Homo sapiens, UniProt P00533). Put plainly: EGFR kinase inhibition, solid-phase ELISA assay. (ELISA stands for enzyme-linked immunosorbent assay.)
Method: All these newly synthesized compounds were evaluated for their inhibitory activities against EGFR kinases using a solid-phase ELISA assay.
EGFR tyrosine kinase activity was determined by an enzyme linked-immunosorbent assay (ELISA) in 96-well plates precoated in a 10 mL reaction volume including 4 mL diluted test compounds, 4 mL substrate and 2 mL ATP. […] The plates were then aspirated and washed twice with 200 mL 0.9% (w/v) NaCl, and incorporation of Pi was determined with an LX300 Epson Diagnostic microplate reader. […] The experiments were replicated at least three times to verify the methodology reproducibility when using the above-mentioned conditions.
For a further data set, the system named is MCF-7 cells. Put plainly: MTT antiproliferative assay, MCF-7. The class given is cell-based, human. The method, then:
as §1

In a further data set the test system is HepG2 cells. Put plainly: MTT antiproliferative assay, HepG2. The class given is cell-based, human. Conditions: read-out: In vitro antiproliferative activity IC50, HepG2. The method, then: as §1
Data set [5] has as its system 293T human kidney epithelial cells. Put plainly: Cytotoxicity test (MTT) on 293T cells. Conditions: read-out: median cytotoxic concentration CC50; 293T cells, MTT assay, 24 h. As to the method:
as §2

[6] abbreviates: read-out: Inhibition activity IC50 against EGFR, solid-phase ELISA assay.
[7] abbreviates: read-out: In vitro antiproliferative activity IC50, MCF-7.

Structures are written as SMILES. Like-named read-outs stand apart in the source and are kept apart here.

Sequence of epidermal growth factor receptor (EGFR) (P00533 25-1210): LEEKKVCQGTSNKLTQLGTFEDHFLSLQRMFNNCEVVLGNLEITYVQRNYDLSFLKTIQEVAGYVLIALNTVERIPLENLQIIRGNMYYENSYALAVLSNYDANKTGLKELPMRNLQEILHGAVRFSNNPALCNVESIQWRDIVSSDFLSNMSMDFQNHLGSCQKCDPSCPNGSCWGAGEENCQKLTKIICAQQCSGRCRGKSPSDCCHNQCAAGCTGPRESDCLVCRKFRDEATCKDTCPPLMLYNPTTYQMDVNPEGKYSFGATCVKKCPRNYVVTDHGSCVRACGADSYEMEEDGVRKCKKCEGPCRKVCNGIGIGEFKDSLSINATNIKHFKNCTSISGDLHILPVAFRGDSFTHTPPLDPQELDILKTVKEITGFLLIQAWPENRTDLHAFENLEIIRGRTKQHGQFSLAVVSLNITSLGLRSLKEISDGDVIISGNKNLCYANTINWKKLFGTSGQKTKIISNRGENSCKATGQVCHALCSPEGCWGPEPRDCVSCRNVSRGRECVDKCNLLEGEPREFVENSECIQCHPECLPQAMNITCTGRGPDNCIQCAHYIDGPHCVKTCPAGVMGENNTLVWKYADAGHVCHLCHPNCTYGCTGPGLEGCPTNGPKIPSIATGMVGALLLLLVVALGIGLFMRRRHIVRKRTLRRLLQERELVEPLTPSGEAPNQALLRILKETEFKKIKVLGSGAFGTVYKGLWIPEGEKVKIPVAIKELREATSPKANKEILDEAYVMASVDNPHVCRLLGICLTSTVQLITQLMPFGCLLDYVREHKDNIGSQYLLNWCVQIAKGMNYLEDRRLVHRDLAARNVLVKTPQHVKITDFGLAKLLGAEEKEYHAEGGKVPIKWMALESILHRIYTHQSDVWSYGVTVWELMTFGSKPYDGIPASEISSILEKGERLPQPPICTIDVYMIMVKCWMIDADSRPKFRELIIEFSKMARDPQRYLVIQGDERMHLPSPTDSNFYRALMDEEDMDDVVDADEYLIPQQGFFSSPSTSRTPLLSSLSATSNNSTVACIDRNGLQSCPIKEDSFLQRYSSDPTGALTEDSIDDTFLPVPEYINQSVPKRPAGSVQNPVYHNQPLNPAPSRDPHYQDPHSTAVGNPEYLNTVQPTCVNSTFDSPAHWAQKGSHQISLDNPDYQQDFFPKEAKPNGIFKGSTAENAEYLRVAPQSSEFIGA

As usually defined, the IC50 is the concentration that gives 50% inhibition. As for `Cc1ccc(C2=NN(C3=NC(=O)CS3)C(c3ccc(Br)cc3)C2)cc1` (stereo not shown) [b], the IC50 in the data set on EGFR (reported compounds of Figure 1) is 240 nM.
By melting point is commonly meant the temperature, or range, at which the solid turns liquid. `COc1ccc(/C=N/NC(=O)c2ccc(N3N=C(c4ccc(C)cc4)CC3c3ccc4ccccc4c3)cc2)cc1` (stereo not shown) [Compound H20, (E)-N′-(4-Methoxybenzylidene)-4-(5-(naphthalen-2-yl)-3-(p-tolyl)-4,5-dihydro-1H-pyrazol-1-yl)benzo-hydrazide] had a melting point of 241 to 243 °C. Moreover, the IC50 in the data set on A549 cells (Homo sapiens) was 460 nM. Moreover, in the data set on HeLa cells [1] (2.0 μM), the “percentage of cell apoptosis” value came to 28.7%. The “percentage of cell apoptosis” value in the data set on HeLa cells [1] (4.0 μM) is 34.9%. The “percentage of cell apoptosis” value with HeLa cells [1] (6.0 μM) came out at 47.2%. Moreover, in the data set on HeLa cells [1] (8.0 μM), the “percentage of cell apoptosis” value is reported as 58.12%. For the same compound, in data set [2], the CC50 at 24 h amounted to 89900 nM. Also, in the data set on HeLa cells [3] (Homo sapiens), the half-maximal inhibitory concentration (IC50) was 150 nM. The compound also yielded an IC50 in [4] of 80 nM. In the data set with MCF-7 cells (Homo sapiens, MCF7, read-out: In vitro antiproliferative activity IC50, MCF-7), the IC50 turned out to be 290 nM. The IC50 with HepG2 cells (Homo sapiens) was 210 nM.
For the compound `CC(=O)N1N=C(c2ccc(C(F)(F)F)cc2)CC1c1ccc(C(=O)OCC(C)n2c([N+](=O)[O-])cnc2C)cc1` (stereo not shown) [d], the IC50 in the data set with EGFR (reported compounds of Figure 1) is 260 nM.
Consider `Cc1ccc(C2=NN(c3ncc(-c4ccc(Cl)cc4)s3)C(c3ccc(F)cc3)C2)cc1C` (stereo not shown) [c], for which the half-inhibitory concentration (IC50) in the data set on EGFR (reported compounds of Figure 1) is 60 nM.
Turning to `COc1cccc(/C=N/NC(=O)c2ccc(N3N=C(c4ccc(C)cc4)CC3c3ccc4ccccc4c3)cc2)c1` (stereo not shown) [Compound H4, (E)-N′-(3-Methoxybenzylidene)-4-(5-(naphthalen-2-yl)-3-(p-tolyl)-4,5-dihydro-1H-pyrazol-1-yl)benzo-hydrazide], the IC50 in the data set with A549 cells worked out at 430 nM; with HeLa cells [3], 450 nM; in [4] (setting [6]) it was 230 nM; with MCF-7 cells (setting [7]), 690 nM; in the data set with HepG2 cells, 510 nM. Besides, in data set [5], the CC50 is 98800 nM.
Take `COc1ccc(C2CC(c3ccc(C)c(C)c3)=NN2C(N)=S)cc1` (stereo not shown) [a]: the IC50 in the data set on EGFR (reported compounds of Figure 1) was 70 nM.
On to `COc1cccc(/C=N/NC(=O)c2ccc(N3N=C(c4ccccc4)CC3c3ccc4ccccc4c3)cc2)c1` (stereo not shown) [Compound H1, (E)-N′-(3-Methoxybenzylidene)-4-(5-(naphthalen-2-yl)-3-phenyl-4,5-dihydro-1H-pyrazol-1-yl)benzo-hydrazide], for which the IC50 with A549 cells turned out to be 14500 nM; in the data set on HeLa cells [3], 22500 nM; in data set [4] (setting [6]), 8470 nM; with MCF-7 cells (setting [7]), 21000 nM; in the data set with HepG2 cells, 28800 nM. In addition, the CC50 in [5] is 98600 nM.
For the compound `Cc1ccc(C2=NN(C3=NC(=O)CS3)C(c3ccc4ccccc4c3)C2)cc1C` (stereo not shown) [Compound e], in the data set on EGFR (reported compound of Figure 1), the IC50 is 120 nM.
As for `COc1ccc(/C=N/NC(=O)c2ccc(N3N=C(c4ccccc4C)CC3c3ccc4ccccc4c3)cc2)cc1` (stereo not shown) [Compound H18, (E)-N′-(4-Methoxybenzylidene)-4-(5-(naphthalen-2-yl)-3-(o-tolyl)-4,5-dihydro-1H-pyrazol-1-yl)benzo-hydrazide], the 50% inhibitory concentration (IC50) with A549 cells was 1220 nM; with HeLa cells [3], 780 nM; in data set [4] (setting [6]), 480 nM; in the data set with MCF-7 cells (setting [7]) it was 1630 nM; in the data set with HepG2 cells it was 560 nM. Also, the CC50 in data set [5] stood at 90600 nM.
On to `COc1ccc(/C=N/NC(=O)c2ccc(N3N=C(c4cccc(C)c4)CC3c3ccc4ccccc4c3)cc2)cc1` (stereo not shown) [Compound H19, (E)-N′-(4-Methoxybenzylidene)-4-(5-(naphthalen-2-yl)-3-(m-tolyl)-4,5-dihydro-1H-pyrazol-1-yl)benzo-hydrazide], for which the concentration for half-maximal inhibition (IC50) turned out to be 2240 nM in the data set with A549 cells; 1190 nM in the data set on HeLa cells [3]; 1250 nM in data set [4] (setting [6]); 2450 nM in the data set with MCF-7 cells (setting [7]); 3260 nM in the data set with HepG2 cells. Also, the CC50 in data set [5] was 92600 nM.
